In general, Ki refers to a dissociation constant, usually derived from enzyme kinetics or from competition with a known ligand. The term LD50 denotes the dose at which mortality reaches 50%. Read a low LD50 as a more toxic substance.

Read-outs that look alike come from different tables or passages of the source.

One data set concerns the target NMDA receptor. As to the kind of experiment: In vitro binding assay, inhibition of [^3 H]CGS-19755 binding at the NMDA receptor site (semipurified synaptic membranes from rat forebrain). The note with it: 10 nM [^3 H]CGS-19755, 15 minutes at 4° C., 50 mM Tris-citrate pH 7.1; read-out: Ki [^3 H]CGS19755. Details: species or system Adult male Sprague-Dawley rats. The protocol:
The compounds of the invention were tested for their ability to inhibit [^3 H]CGS-19755 binding. Semipurified synaptic membranes were prepared according to the method of Bristow et al. (1986) with minor modifications. Adult male Sprague-Dawley rats were decapitated, and the forebrains were removed, weighed and homogenized in 20 volumes of 0.32M sucrose. The homogenate was centrifuged at 27,000×G for 15 minutes. The pellet was resuspended in 20 volumes of distilled water followed by centrifugation at 8000×G for […]. Both the supernatant and the buffy coat layer, removed with 5 mM Tris-Cl (2 mL), pH 7.8, were pooled and centrifuged at 27,000×G for 15 minutes. The supernatant was removed and the pellet was covered with a small amount of 5 mM Tris-HCl and stored at -20° C. for least 18 hours. Membranes were then washed four times in 50 mM Tris-citrate, pH 7.1, and finally resuspended in the same buffer. This suspension was used for the binding assay immediately or frozen for subsequent use.
Aliquots of membranes (800 μl) were incubated with 10 nM [^3 H]CGS-19755 (100 μl) and varying concentrations of the test compounds (100 μl) for 15 minutes at 4° C. Then a filtration assay was used. The samples were filtered over glass fiber filters using a Brandel Cell Harvester. […]
Ki values were calculated from the equation: [formula]

In another data set the test system is NMDA-Induced Lethality. Put plainly: In vivo protection in the mouse against NMDA-induced lethality. Also noted: species or system male Swiss-Webster mice. Conditions: ip; for ED50: Mus musculus, read-out: PD50. As to the method:
(§1) According to the method described by Ferkany et al. (1988), the test compounds were administered ip to four male Swiss-Webster mice (26-34 g) each, following 30 minutes later, 200 mg/kg of NMDA was administered to the mice each. […] Those compounds that protected three or more of the mice at any of the doses were evaluated further by determining the ED50 values using three or more doses with the eight mice per dose. The ED50 was estimated by the method of Litchfield and Wilcoxin (1949). Water-soluble compounds were dissolved in distilled water and administered in a volume of 10 mL/kg. Water-insoluble compounds were suspended in an aqueous solution of 0.5% methyl cellulose and administered in a volume of 20 mL/kg.

Another data set has as its system NMDA recognition site. Conditions: Lehman et al., 1988; Murphy et al., 1987; cited from earlier work.
Data set [1] in a line: Lethality of NMDA in mice. Details: species or system male Swiss-Webster mice. The note with it: mouse, in vivo. The protocol:
as §1

Setting [2] is: 30 minutes before 200 mg/kg NMDA, Litchfield and Wilcoxin.

Regarding `O=C(O)C1C/C(=C/P(=O)(O)O)CCN1` (centres unmarked) [E-4-(phosphonomethylidene)-2-piperidinecarboxylic acid], the Ki at NMDA receptor was 590 nM. Moreover, the ED50 in the data set on NMDA-Induced Lethality was found to be 1.1 mg/kg. Further, in the data set on NMDA-Induced Lethality (setting [2]), the “Confidence Limits (of PD50)” value is on record as 0.5-2.2 and the Slope is listed as 1.96.
With `O=C(O)[C@H]1C[C@@H](CP(=O)(O)O)CCN1` (relative stereo) [CGS-19755, cis-4-(phosphonomethyl)-2-piperidinecarboxylicacid], the Ki at NMDA receptor was 112 nM. In addition, the ED50 in the data set on NMDA-Induced Lethality (30 minutes before 200 mg/kg NMDA, eight mice per dose, Litchfield and Wilcoxin) worked out at 2 mg/kg. Also, in the data set on NMDA-Induced Lethality (setting [2]), the “Confidence Limits (of PD50)” value is on record as 1.2-3.6 and the Slope is given as 2.46. Further, the “antagonists at the NMDA recognition site” value in the data set with NMDA recognition site is given as “high-affinity antagonists”.
With `CN[C@H](CC(=O)O)C(=O)O` [NMDA, N-methyl-D-aspartate], in data set [1] (200 mg/kg NMDA, read-out: mice died at 200 mg/kg NMDA), the mortality was ~90%. The same molecule showed an LD50 in data set [1] (mice) of 164 mg/kg.
